Assay results taken from patent US11873298B2, “Compounds and uses thereof” (JANSSEN PHARMACEUTICA NV, priority 2017, dated 2024).
pEC50, pIC50: −log10 of the molar value.

What was measured:
[1] = molecular target: T1, Ole1 (Saccharomyces cerevisiae, UniProt P21147); assay: Growth inhibition of yeast strain expressing Ole1 as sole desaturase; format: cell-based; conditions: yeast strain expressing Ole1 as sole desaturase
T1 construct: expressed in transfected cells; host or cells: S. cerevisiae ole1Δ strain (W303 pdr1Δ pdr3Δ background), plasmid pRS316 with TDH3 promoter and CYC1 terminator
T1 sequence (P21147 1-510): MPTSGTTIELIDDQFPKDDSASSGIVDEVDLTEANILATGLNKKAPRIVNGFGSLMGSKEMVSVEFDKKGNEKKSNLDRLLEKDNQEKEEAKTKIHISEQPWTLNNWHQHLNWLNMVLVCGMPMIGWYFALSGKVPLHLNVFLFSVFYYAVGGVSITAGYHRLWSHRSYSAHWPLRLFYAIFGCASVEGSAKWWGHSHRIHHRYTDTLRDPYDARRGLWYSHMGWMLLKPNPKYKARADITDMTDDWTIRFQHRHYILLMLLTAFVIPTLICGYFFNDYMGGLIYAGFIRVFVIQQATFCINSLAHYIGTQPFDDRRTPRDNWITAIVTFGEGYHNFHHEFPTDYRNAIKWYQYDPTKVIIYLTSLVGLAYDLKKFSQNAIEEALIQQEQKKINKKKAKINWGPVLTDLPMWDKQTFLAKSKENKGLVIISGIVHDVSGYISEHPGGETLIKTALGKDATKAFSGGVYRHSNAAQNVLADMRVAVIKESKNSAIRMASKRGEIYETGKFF
How it was run: (§1)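 OD600 growth read-out. ole1Δ yeast, pdr1Δ pdr3Δ, with Ole1/SCD1/SCD5 on a plasmid; SX-Ura media throughout; 2× cell density 0.02 in CSM-Galactose; DMSO compound dilutions; humidified 30° C.; Ole1 stopped at 24 h, SCD1/SCD5 at 40 h.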

[2] = molecular target: T2, SCD1 (Homo sapiens, UniProt O00767); assay: Growth inhibition of humanized yeast strain expressing SCD1 as sole desaturase; format: cell-based; conditions: humanized yeast strain expressing SCD1
T2 construct: host or cells: S. cerevisiae ole1Δ strain (W303 pdr1Δ pdr3Δ background), plasmid pRS316 with TDH3 promoter and CYC1 terminator
T2 sequence (O00767 1-359): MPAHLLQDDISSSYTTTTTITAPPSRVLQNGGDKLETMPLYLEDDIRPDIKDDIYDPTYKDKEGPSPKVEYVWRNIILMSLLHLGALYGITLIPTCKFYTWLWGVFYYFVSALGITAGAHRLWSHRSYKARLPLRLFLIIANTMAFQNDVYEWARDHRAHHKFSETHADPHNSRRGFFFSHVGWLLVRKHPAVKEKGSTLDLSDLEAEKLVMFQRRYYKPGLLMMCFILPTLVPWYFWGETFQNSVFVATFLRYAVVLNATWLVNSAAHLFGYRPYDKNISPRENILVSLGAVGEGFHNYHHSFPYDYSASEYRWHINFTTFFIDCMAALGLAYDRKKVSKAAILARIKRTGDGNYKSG
How it was run: as §1

[3] = molecular target: T3, SCD5 (Homo sapiens, UniProt Q86SK9); assay: Growth inhibition of humanized yeast strain expressing SCD5 as sole desaturase; format: cell-based; conditions: humanized yeast strain expressing SCD5
T3 construct: host or cells: S. cerevisiae ole1Δ strain (W303 pdr1Δ pdr3Δ background), plasmid pRS316 with TDH3 promoter and CYC1 terminator
T3 sequence (Q86SK9 1-330): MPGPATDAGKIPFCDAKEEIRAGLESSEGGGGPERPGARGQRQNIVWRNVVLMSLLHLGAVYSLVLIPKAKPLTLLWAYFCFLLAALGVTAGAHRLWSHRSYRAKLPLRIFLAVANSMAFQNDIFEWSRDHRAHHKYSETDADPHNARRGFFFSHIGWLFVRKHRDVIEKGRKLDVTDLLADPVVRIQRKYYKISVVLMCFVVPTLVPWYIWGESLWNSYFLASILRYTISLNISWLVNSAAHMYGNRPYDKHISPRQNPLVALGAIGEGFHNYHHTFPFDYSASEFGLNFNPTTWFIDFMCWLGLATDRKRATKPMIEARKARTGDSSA
How it was run: as §1

[4] = test system: yeast strains expressing the human ApoE4; assay: Yeast ApoE4 toxicity rescue assay (OD600 growth); conditions: 24 h; for pEC50: read-out: ApoE4 EC50; for Emax: read-out: ApoE4 Emax
Excerpt: The induced expression of α-synuclein and ApoE4 confers cytotoxicity, thus enabling the identification of compounds that can restore cell viability. This instantaneous/synchronous induction of α-synuclein and ApoE4 can be achieved due to the following expression control. In glucose-containing media, gene expression from the GAL1 promoter is ‘off’ and actively repressed by additional epigenetic factors. In raffinose, expression is ‘off’, but the promoter not actively repressed. Upon transition to galactose-containing media, the promoter is instantaneously turned ‘on’ to achieve robust and synchronous induction of α-synuclein or ApoE4 expression. This highly regulated induction provides a robust window for the determination of both efficacy (amplitude of protective effect) and potency (concentration of protective effect) of cytoprotective compounds.
Re-suspended compound stocks were subsequently arrayed into 384 well compound plates using automated pipetting. All other wells not receiving stock compound were filled with 10 μL of 100% DMSO using an automated plate filler (Multidrop Combi). An 11 point, 2-fold serial dilution was then performed using the robotic platform. Compound assay plates were covered with foil and stored at −20° C. until use.
Each strain was handled according to standard protocols and cultured in media composed of CSM (complete synthetic media), YNB (yeast nitrogenous base), and a 2% (w/v) carbon source (either glucose, raffinose, or galactose).
In a standard yeast assay, a single-use aliquot of cells was thawed on ice and diluted into CSM/glucose (5 mL). Cultures were grown for 8 hours at 30° C. This pre-growth enables the yeast to exit the thaw and begin to grow without expressing aSyn or ApoE4. After 8 hours, cell density (OD600) was determined and cultures diluted to an OD600 of 0.01 in CSM/raffinose for an overnight culture phase at 30° C. During this period, the active glucose repression of the GAL1 promoter was relieved; however, expression of the α-Syn/ApoE4 genes were not yet induced. After ˜16 hours of growth, cultures attain an OD600 of 0.4-0.8 and were ready to apply to assay plates containing compound.
Compound profiling assays were executed in clear-bottom 384 well plates. First, compound plates were thawed at room temperature for 45′, centrifuged at 1,000×g for 1 minute, and the foil removed. Clear 384 well assay plates were then filled with 15 μL of CSM/galactose. […] The pin tool was washed iteratively with both 50% DMSO and 100% ethanol between each assay plate. After delivering compound to each assay plate, the overnight CSM/raffinose aSyn or ApoE4 cultures were added at a 2X cell density (0.04 for aSyn and 0.08 for ApoE4) in CSM/galactose to achieve a final assay OD600 of 0.02 and 0.04 for aSyn and ApoE, respectively. The cultures (15 μL per well) were then dispensed to the compound -containing 384 well assay plates using an automated plate filler. Plates were incubated in a humidified 30° C. incubator for 40 or 24 hours for aSyn and ApoE4, respectively. The ODsoo of each assay plate was then read with a microplate reader (e.g., Perkin Elmer Envision).
The efficacy and potency of compounds were calculated according to the following. Raw data (OD600 values) were first background corrected to account for OD600 contributed by the plate and media itself. The efficacy (percent above DMSO, herein referred to as “Emax”) was calculated according to the equation: (Experimental well−DMSO control well)/(DMSO control well)*100. […] Normalized dose-response data was fit with a logistic regression curve using Spotfire (TIBCO), or similar curve-fitting software package. EC50 values were then reported along with EMax to provide both efficacy and potency measures for each analog and enable further compound design.

[5] = test system: yeast strains expressing the human α-synuclein; assay: Yeast α-synuclein toxicity rescue assay (OD600 growth); conditions: 40 h; for pEC50: read-out: α-Syn EC50; for Emax: read-out: α-Syn Emax

## COc1ccc(-c2noc(C3CCN(C(=O)COCc4ccccc4)CC3)n2)cc1OC [Compound 31]
[1]
  pIC50: < 4.35
  OLE1 % Max Inhibition: 79.60%
[2]
  pIC50: < 4.35
  SCD1 % Max Inhibition: 81.19%
[3]
  pIC50: 4.60
  SCD5 % Max Inhibition: 24.26%
[4]
  pEC50: 5.01
  Emax: 721%
[5]
  pEC50: 5.12
  Emax: 438%

## COc1ccc(-c2noc(C3CCN(C(=O)/C=C/C(=O)c4ccccc4)CC3)n2)cc1OC [Compound 33]
[1]
  pIC50: < 4.35
  OLE1 % Max Inhibition: 1.55%
[2]
  pIC50: < 4.35
  SCD1 % Max Inhibition: 8.14%
[3]
  pIC50: < 4.35
  SCD5 % Max Inhibition: 24.10%
[4]
  pEC50: 6.14
  Emax: 281%
[5]
  pEC50: 6.95
  Emax: 260%

## COc1ccc(-c2noc(C3CCN(C(=O)CNC(c4ccccc4)C(F)(F)F)CC3)n2)cc1OC (stereo not drawn) [Compound 34]
[1]
  pIC50: < 4.35
  OLE1 % Max Inhibition: 76.89%
[2]
  pIC50: < 4.35
  SCD1 % Max Inhibition: 42.55%
[3]
  pIC50: < 4.35
  SCD5 % Max Inhibition: 5.37%
[4]
  Emax: 596%
[5]
  pEC50: 4.95
  Emax: 562%

## COc1ccc(-c2nsc(C3CCN(C(=O)CNC(=O)c4ccccc4)CC3)n2)cc1OC [Compound 35]
[1]
  pIC50: < 4.35
  OLE1 % Max Inhibition: 3.66%
[2]
  pIC50: < 4.35
  SCD1 % Max Inhibition: 79.23%
[3]
  pIC50: < 4.35
  SCD5 % Max Inhibition: 68.57%
[4]
  pEC50: 5.95
  Emax: 911%
[5]
  pEC50: 7.28
  Emax: 626%

## COc1ccc(-c2nc(C3CCN(C(=O)CNC(=O)c4ccccc4)CC3)no2)cc1OC [Compound 36]
[1]
  pIC50: < 4.35
  OLE1 % Max Inhibition: 17.70%
[2]
  pIC50: 4.52
  SCD1 % Max Inhibition: 64.67%
[3]
  pIC50: < 4.35
  SCD5 % Max Inhibition: 63.86%
[4]
  pEC50: 5.67
  Emax: 908%
[5]
  pEC50: 5.76
  Emax: 629%

## COc1ccc(-c2coc(C3CCN(C(=O)CNC(=O)c4ccccc4)CC3)n2)cc1OC [Compound 37]
[1]
  pIC50: < 4.35
  OLE1 % Max Inhibition: 9.99%
[2]
  pIC50: < 4.35
  SCD1 % Max Inhibition: 81.44%
[3]
  pIC50: < 4.35
  SCD5 % Max Inhibition: 74.18%
[4]
  pEC50: 5.19
  Emax: 849%
[5]
  pEC50: 5.66
  Emax: 608%

## COc1ccc(-c2csc(C3CCN(C(=O)CNC(=O)c4ccccc4)CC3)n2)cc1OC [Compound 38]
[1]
  pIC50: < 4.35
  OLE1 % Max Inhibition: 20.26%
[2]
  pIC50: < 4.35
  SCD1 % Max Inhibition: 72.81%
[3]
  pIC50: 4.39
  SCD5 % Max Inhibition: 64.24%
[4]
  pEC50: 5.22
  Emax: 750%
[5]
  pEC50: 5.48
  Emax: 336%

## O=C(NCC(=O)N1CCC(c2nc(-c3ccc(F)cc3)no2)CC1)c1ccccc1 [Compound 41]
[1]
  pIC50: < 4.35
  OLE1 % Max Inhibition: 85.45%
[2]
  pIC50: 4.41
  SCD1 % Max Inhibition: 55.28%
[3]
  pIC50: < 4.35
  SCD5 % Max Inhibition: 43.51%
[4]
  Emax: 400%
[5]
  pEC50: 4.96
  Emax: 211%

## O=C(NCC(=O)N1CCC(c2nc(-c3cccc(F)c3)no2)CC1)c1ccccc1 [Compound 42]
[1]
  pIC50: < 4.35
  OLE1 % Max Inhibition: 95.43%
[2]
  pIC50: < 4.35
  SCD1 % Max Inhibition: 90.77%
[3]
  pIC50: < 4.35
  SCD5 % Max Inhibition: 47.40%
[4]
  Emax: 399%
[5]
  pEC50: 4.90
  Emax: 255%
